{
  "source": "patent US20210213104A1",
  "about": "“GLUCAGON AND GLP-1 CO-AGONISTS FOR THE TREATMENT OF CHRONIC KIDNEY DISEASE AND DIABETIC KIDNEY DISEASE IN TYPE 2 DIABETES” (MEDIMMUNE LIMITED, priority 2020, published 2021)",
  "test_system": "subjects with T2DM and renal impairment",
  "assay": "Phase 2a: continuous glucose monitoring (CGM)",
  "format": "in vivo, human",
  "conditions": "for Percentage of Time CGM Glucose Within Target Range (70-180 mg/dL), Mean / Percentage of Time CGM Glucose Within Target Range (70-180 mg/dL), Median / Time in target range, Change from Baseline (Days −8 to −2), Mean / Time in target range, Change from Baseline (Days −8 to −2), Median / Time in target range, Difference in LS Mean Change (vs Placebo): 300 μg Dose (Days 26 to 32); for Percentage of Time CGM Glucose Within Target Range (70-180 mg/dL), Mean / Percentage of Time CGM Glucose Within Target Range (70-180 mg/dL), Median / Time in target range, Change from Baseline (Days −8 to −2), Mean / Time in target range, Change from Baseline (Days −8 to −2), Median / Time in target range, Difference in LS Mean Change (vs Placebo) / Percentage of time spent in CGM glucose range 70-180 mg/dL during treatment / Percentage of time spent in CGM glucose range >180 mg/dL during treatment: ITT; for Percentage of time spent in CGM glucose range 70-180 mg/dL during treatment / Percentage of time spent in CGM glucose range >180 mg/dL during treatment: entire dosing period",
  "procedure": "Cotadutide was titrated from 50 μg up to 300 μg and administered once daily by subcutaneous (SC) injection over 32 days.\nCotadutide was administered at 50 μg once daily for 4 days, followed by 100 μg daily for 7 days, 200 μg daily for 7 days, and 300 μg daily for 14 days (n=20). Placebo was administered one daily for 32 days (n=20). Cotadutide and placebo were administered in the morning. Dosing commenced following predose baseline vital signs, blood tests (including HbA1c), an electrocardiogram (ECG), body weight measurement, and bioimpedance spectroscopy (BIS). Subjects then returned for daily dosing or remained overnight locally until Day 5, and thereafter, had visits at weekly intervals until a maintenance dose of 300 μg was established. Thus, Cotadutide or placebo was administered at the study site by study personal for the first four doses and on site on Days 5, 12, 19, and 32. At all other times, subjects preformed dosing at home.\nA Freestyle Libre® Pro CGM device was used to measure interstitial glucose levels. […] Data generated by CGM was used at visits to adjust insulin doses and other treatments.\nThe CGM sensor, which is a small plastic circular device of 35 mm diameter and 5 mm depth, was applied to the back of the upper arm. Subjects wore the CGM sensor continuously up until the time of a sensor change, which was to occur within 14 days, and they were advised that they could bathe and shower, and swim in up to 3 m depth for up to 30 minutes while wearing the CGM sensor. When the CGM sensor was removed, a new CGM sensor could be reapplied, ideally close to the original site, but with the subject's site preference taken into account. CGM sensors were single-use only.\nIf a subject was unable to tolerate wearing the CGM sensor for the entire duration of the study, the sensor was removed; but the subject was to remain in the study with or without continued CGM and could instead be instructed to monitor capillary plasma glucose measurements four times per day (before meals and before bedtime) and record these levels in the diary provided.\nSubjects underwent continuous glucose monitoring (CGM) starting from Day −14 to Day 40 (±5 days), with sensor changes within 14-day intervals. CGM readings were used to analyze change in average CGM glucose and glucose AUC7 d, coefficient of variation as a marker of glycemic variability, and time spent in target glucose range and hypoglycemia, to enable comparison across different dose levels.",
  "note": "Marks after values point to notes of the source that are not given here.",
  "data": [
    {"smiles": "CCCCCCCCCCCCCCCC(=O)N[C@@H](CCC(=O)NCCCC[C@H](NC(=O)[C@H](CC(=O)O)NC(=O)[C@H](CO)NC(=O)[C@@H](NC(=O)[C@H](Cc1ccccc1)NC(=O)[C@@H](NC(=O)CNC(=O)[C@H](CCC(N)=O)NC(=O)[C@H](CO)NC(=O)[C@@H](N)Cc1c[nH]cn1)[C@@H](C)O)[C@@H](C)O)C(=O)N[C@@H](CO)C(=O)N[C@@H](CCC(=O)O)C(=O)N[C@@H](Cc1ccc(O)cc1)C(=O)N[C@@H](CC(C)C)C(=O)N[C@@H](CC(=O)O)C(=O)N[C@@H](CO)C(=O)N[C@@H](CCC(=O)O)C(=O)N[C@@H](CCCNC(=N)N)C(=O)N[C@@H](C)C(=O)N[C@@H](CCCNC(=N)N)C(=O)N[C@@H](CC(=O)O)C(=O)N[C@@H](Cc1ccccc1)C(=O)N[C@H](C(=O)N[C@@H](C)C(=O)N[C@@H](Cc1c[nH]c2ccccc12)C(=O)N[C@@H](CC(C)C)C(=O)N[C@@H](CCC(=O)O)C(=O)N[C@@H](C)C(=O)NCC(=O)NCC(=O)O)C(C)C)C(=O)O", "note": "[Cotadutide]", "values": [
      {"measurement": "Percentage of Time CGM Glucose Within Target Range (70-180 mg/dL), Mean", "setting": "Insulin Dose < 20 U/day", "value": 89.31, "unit": "%"},
      {"measurement": "Percentage of Time CGM Glucose Within Target Range (70-180 mg/dL), Median", "setting": "Insulin Dose < 20 U/day", "value": 95.35, "unit": "%"},
      {"measurement": "Time in target range, Change from Baseline (Days −8 to −2), Mean", "setting": "Insulin Dose < 20 U/day", "value": 25.61, "unit": "%"},
      {"measurement": "Time in target range, Change from Baseline (Days −8 to −2), Median", "setting": "Insulin Dose < 20 U/day", "value": 23.18, "unit": "%"},
      {"measurement": "Time in target range, Difference in LS Mean Change (vs Placebo)", "setting": "Insulin Dose < 20 U/day", "value": 56.7, "unit": "%"},
      {"measurement": "Time in target range, Difference in LS Mean Change (vs Placebo)", "setting": "Insulin Dose < 20 U/day, listed as MEDI0382", "value": 56.73, "unit": "%"},
      {"measurement": "Percentage of Time CGM Glucose Within Target Range (70-180 mg/dL), Mean", "setting": "Insulin Dose ≥ 20 U/day", "value": 71.69, "unit": "%"},
      {"measurement": "Percentage of Time CGM Glucose Within Target Range (70-180 mg/dL), Median", "setting": "Insulin Dose ≥ 20 U/day", "value": 83.04, "unit": "%"},
      {"measurement": "Time in target range, Change from Baseline (Days −8 to −2), Mean", "setting": "Insulin Dose ≥ 20 U/day", "value": 8.44, "unit": "%"},
      {"measurement": "Time in target range, Change from Baseline (Days −8 to −2), Median", "setting": "Insulin Dose ≥ 20 U/day", "value": 13.31, "unit": "%"},
      {"measurement": "Time in target range, Difference in LS Mean Change (vs Placebo)", "setting": "Insulin Dose ≥ 20 U/day", "value": 19.6, "unit": "%"},
      {"measurement": "Time in target range, Difference in LS Mean Change (vs Placebo)", "setting": "Insulin Dose ≥ 20 U/day, listed as MEDI0382", "value": 19.59, "unit": "%"},
      {"measurement": "Percentage of Time CGM Glucose Within Target Range (70-180 mg/dL), Mean", "setting": "Total", "value": 78.18, "unit": "%"},
      {"measurement": "Percentage of Time CGM Glucose Within Target Range (70-180 mg/dL), Median", "setting": "Total", "value": 83.51, "unit": "%"},
      {"measurement": "Time in target range, Change from Baseline (Days −8 to −2), Mean", "setting": "Total", "value": 14.50, "unit": "%"},
      {"measurement": "Time in target range, Change from Baseline (Days −8 to −2), Median", "setting": "Total", "value": 18.31, "unit": "%"},
      {"measurement": "Time in target range, Difference in LS Mean Change (vs Placebo)", "setting": "Total", "value": 36.02, "unit": "%"},
      {"measurement": "Time in target range, difference in LS mean change as compared to placebo", "setting": "300 μg [Days 19 to 25], all subjects", "value": 35.23, "unit": "%"},
      {"measurement": "mean CGM glucose value", "setting": "at the 50 μg dose", "value": 133.7, "unit": "mg/dL"},
      {"measurement": "mean CGM glucose value", "setting": "at the 100 μg dose", "value": 127.6, "unit": "mg/dL"},
      {"measurement": "mean CGM glucose value", "setting": "at the 200 μg dose", "value": 131.7, "unit": "mg/dL"},
      {"measurement": "mean CGM glucose value", "setting": "at the 300 μg dose (Days 26 to 32)", "value": 125.4, "unit": "mg/dL"},
      {"measurement": "Total glucose over each dosing period (AUC7 d) from baseline (Days −8 to −2) as compared to placebo", "setting": "based on LS mean change", "value": "significantly decreased"},
      {"measurement": "LS mean change in coefficient of variation of glucose vs placebo", "setting": "baseline to the end of each 7-day dosing period", "value": "no statistically significant difference"},
      {"measurement": "Percentage of time spent in CGM glucose range 70-180 mg/dL during treatment", "setting": "Insulin Dose < 20 U/day", "value": "89.85* %"},
      {"measurement": "Percentage of time spent in CGM glucose range >180 mg/dL during treatment", "setting": "Insulin Dose < 20 U/day", "value": 3.31, "unit": "%"},
      {"measurement": "Percentage of time spent in CGM glucose range 70-180 mg/dL during treatment", "setting": "Insulin Dose ≥ 20 U/day", "value": "73.09* %"},
      {"measurement": "Percentage of time spent in CGM glucose range >180 mg/dL during treatment", "setting": "Insulin Dose ≥ 20 U/day", "value": "14.09* %"},
      {"measurement": "Percentage of time spent in CGM glucose range 70-180 mg/dL during treatment", "setting": "Total", "value": 78.67, "unit": "%"},
      {"measurement": "Percentage of time spent in CGM glucose range >180 mg/dL during treatment", "setting": "Total", "value": 10.50, "unit": "%"},
      {"measurement": "Percentage of time spent in CGM glucose range 70-180 mg/dL during treatment", "setting": "Total, listed as MEDI0382", "value": "78.67* %"},
      {"measurement": "Percentage of time spent in CGM glucose range >180 mg/dL during treatment", "setting": "Total, listed as MEDI0382", "value": "10.50* %"},
      {"measurement": "percentage of time spent below 54 mg/dL vs Placebo", "setting": "in vivo", "value": "statistically significant greater percentage of time"},
      {"measurement": "percentage of time spent below 54 mg/dL vs placebo", "setting": "in vivo", "value": "no clinically significant difference vs placebo"},
      {"measurement": "time spent in hypoglycemia (<70 mg/dL) vs placebo, 7-day periods", "setting": "in vivo", "value": "no statistically significant differences"},
      {"measurement": "Average glucose levels from baseline to the end of each 7-day dosing period compared to placebo", "setting": "p ≤0.003, based on LS mean change", "value": "significant reductions"}
    ]}
  ]
}
